For this series the following is noted: 101.33 kPa, Liquid; for viscosity: Capillary tube (Ostwald / Ubbelohde) method; for electrical conductivity: Wayne-Kerr 6430B Autobalance Bridge electrode.

Broadly, the viscosity is the internal friction of a fluid under shear.

Numbers after ± are expanded uncertainties.

With `CC(=O)[O-].CCCCn1cc[n+](C)c1` [1-butyl-3-methylimidazolium acetate], the viscosity by setting is: (303.15 K) 288.8 ± 12 mPa·s; (313.15 K) 149.9 ± 4.2 mPa·s; (323.15 K) 86.13 ± 1.5 mPa·s; (333.15 K) 53.43 ± 0.58 mPa·s; (343.15 K) 35.33 ± 0.44 mPa·s. Besides, the electrical conductivity reads like this: (303.15 K) 0.0731 ± 0.00074 S/m; (308.15 K) 0.1014 ± 0.001 S/m; (313.15 K) 0.136 ± 0.0014 S/m; (318.15 K) 0.178 ± 0.0018 S/m; (323.15 K) 0.229 ± 0.0023 S/m; (328.15 K) 0.2902 ± 0.0029 S/m. The electrical conductivity is, setting by setting: (333.15 K) 0.36 ± 0.0036 S/m; (338.15 K) 0.44 ± 0.0044 S/m; (343.15 K) 0.5319 ± 0.0053 S/m.
In the case of `CCCC(=O)[O-].CCCC[n+]1ccn(C)c1` [3-butyl-1-methyl-1H-imidazolium butanoate], the viscosity is listed as 364.3 ± 16 mPa·s (303.15 K); 193.1 ± 6.3 mPa·s (313.15 K); 111.6 ± 2.4 mPa·s (323.15 K); 69.24 ± 0.9 mPa·s (333.15 K); 45.43 ± 0.58 mPa·s (343.15 K). The electrical conductivity (303.15 K) is 0.04102 ± 0.00041 S/m; the electrical conductivity (308.15 K) came to 0.0558 ± 0.00056 S/m; the electrical conductivity (313.15 K) is 0.0752 ± 0.00076 S/m; the electrical conductivity (318.15 K) stood at 0.0992 ± 0.001 S/m; the electrical conductivity (323.05 K) is 0.129 ± 0.0013 S/m; the electrical conductivity (328.15 K) was found to be 0.165 ± 0.0017 S/m. The electrical conductivity is 0.208 ± 0.0021 S/m (333.15 K), 0.258 ± 0.0026 S/m (338.15 K) and 0.315 ± 0.0032 S/m (343.15 K).
In the case of `CCCC[n+]1ccn(C)c1.O=C[O-]` [3-butyl-1-methyl-1H-imidazolium formate], the viscosity (303.15 K) came to 138.5 ± 3.4 mPa·s; the viscosity (313.15 K) was determined as 80.53 ± 1.3 mPa·s; the viscosity (323.15 K) stood at 50.78 ± 0.53 mPa·s; the viscosity (333.15 K) is given as 34 ± 0.37 mPa·s; the viscosity (343.15 K) was found to be 23.94 ± 0.27 mPa·s. Besides, the electrical conductivity is, setting by setting: (303.15 K) 0.1909 ± 0.0019 S/m; (308.15 K) 0.249 ± 0.0025 S/m; (313.15 K) 0.319 ± 0.0032 S/m; (318.15 K) 0.4019 ± 0.004 S/m; (323.15 K) 0.498 ± 0.005 S/m; (328.15 K) 0.6125 ± 0.0061 S/m. For the same compound, the electrical conductivity by setting is: (333.15 K) 0.738 ± 0.0074 S/m; (338.15 K) 0.88 ± 0.0088 S/m; (343.15 K) 1.04 ± 0.01 S/m.
As for `CCC(=O)[O-].CCCC[n+]1ccn(C)c1` [3-butyl-1-methyl-1H-imidazolium propanoate], the viscosity (303.15 K) was determined as 325.7 ± 14 mPa·s; the viscosity (313.15 K) stood at 171.5 ± 5.2 mPa·s; the viscosity (323.15 K) is 99.27 ± 1.9 mPa·s; the viscosity (333.15 K) came out at 61.78 ± 0.72 mPa·s; the viscosity (343.15 K) is recorded as 40.75 ± 0.51 mPa·s. The electrical conductivity runs as follows: (303.15 K) 0.0703 ± 0.00071 S/m; (308.15 K) 0.0902 ± 0.00091 S/m; (313.15 K) 0.1201 ± 0.0012 S/m; (318.15 K) 0.156 ± 0.0016 S/m; (323.05 K) 0.198 ± 0.002 S/m; (328.15 K) 0.248 ± 0.0025 S/m. Moreover, the electrical conductivity was found to be 0.306 ± 0.0031 S/m (333.15 K), 0.3716 ± 0.0037 S/m (338.15 K) and 0.447 ± 0.0045 S/m (343.15 K).

The values are drawn from the NIST ThermoML archive (doi:10.1021/je300507h).
